Data published in patent US8263823B2, “Immunocompetent xenograft model” (Adimmu Institute Inc., priority 2008, dated 2012).

Columns and labels:
TUBO cells = assay: TUBO tumor size after aHER2, DOXORUBICIN or their combination; type: in vivo, mouse; settings: DOXORUBICIN alone (5 or 15 mg/kg), intratumoral
Procedure: (§1) Cultured cancer cells were trypsinized, washed with media, and injected s.c. on the back. Tumor size was determined at 3-4 day intervals. Tumor volumes were measured along three orthogonal axes (a, b, and c) and calculated as tumor volume=abc/2.
Combination therapy of aHER2 and a chemotherapeutic could show the same reduction in efficacy due to the immunosuppressive action of the chemotherapeutic. To show this, 1×10^6 TUBO cells were injected into Balb/c mice. After the tumor was well-established, the mice were separated into groups subject to the following groups of treatments: (i) 80 μg mIgG only, (ii) 80 μg aHER2 only, (iii) 5 mg/kg DOXORUBICIN only, (iv) 15 mg/kg DOXORUBICIN only, (v) a combination of 80 μg aHER2 and 5 mg/kg DOXORUBICIN, and (vi) a combination of 80 μg aHER2 and 15 mg/kg DOXORUBICIN. The antibodies and chemotherapeutic were administered intratumorally, the time injections and tumor size measurements were taken at 19 and 26 days after tumor injection.

[1] = system: CD8+ 2C transgenic T-cells; settings: chemotherapy (dacarbazine) alone, compared to the control mice
Procedure: Lymph node (LN) cells and splenocytes (SP) were isolated from 2C TCR Tg mice. […] Cells were isolated from the inguinal LNs (DLNs), SP, or tumors at the time indicated. CFSE dilution was evaluated as described in Yu, at Id.
In order to identify the effects of the chemotherapy on CD8+ T-cell priming, 5×10^5 B16-SIY melanoma cells were injected s.c. in the B6 mice. On day 17, 2×10^6 CFSE labeled naïve CD8+ 2C transgenic T-cells were adoptively transferred into the B16-SIY tumor bearing mice. The mice were treated locally with 20 Gy of radiation on day 0 following the transfer. 200 mg/kg dacarbazine i.p. was given two days after the adoptive transfer, and DLN and SP were harvested on day 21 to determine the CFSE dilution in the DLN and SP.

4T1 tumor cells [2] = assay: 4T1 breast tumor model, primary tumor growth, radiation therapy with or without paclitaxel; type: in vivo, mouse; settings: paclitaxel 20 mg/kg i.p. on days 7 and 14 after radiation therapy (15 Gy x3), Balb/c mice
Procedure: The mice were irradiated using an x-ray generator (PCM 1000; Pantak) at the doses indicated by each experiment. Each mouse was protected with a lead cover with only tumor exposed, allowing local irradiation. For systemic chemotherapy, tumor-bearing mice were injected i.p. with 20 mg/kg paclitaxel (Ameristat Pharmaceuticals) for 4T1 bearing mice and 200 mg/kg dacarbazine (Bedford Laboratories) for B16 bearing mice.
as §1
A 4T1 breast tumor model was used to show the results of the test on a different type of tumor. 1×10^5 4T1 tumor cells were injected and allowed to establish for 14 days. Balb/c control mice receive the breast cancer cells and no radiation, and other mice receive radiation therapy only, chemotherapy only, or a combination of radiation therapy followed by chemotherapy. The mice receiving radiation received a dose of 15 Gy on each of days 14, 15, and 16. On days 7 and 14 following radiation therapy, the mice receiving a combination of radiation therapy and chemotherapy received 20 mg/kg paclitaxel i.p.

4T1 tumor cells [3] = assay: 4T1 lung metastases colonogenic assay, radiation therapy with or without paclitaxel; type: in vivo, mouse
Description: For surgical excision of primary 4T1 and B16-CCR7 tumors, mice were anesthetized, and tumors were resected with sterilized instruments. A colonogenic assay was used to evaluate metastases in 4T1 and B16-CCR7 tumors as described in B. A. Pulaski, S. Ostrand-Rosenberg, Curr Protoc Immunol Chapter 20, Unit 20 2 (May, 2001), incorporated herein by reference in its entirety. Lungs for 4T1 tumor or DLN for B16-CCR7 were collected, chopped and dissociated in DMEM supplemented with 10% FCS containing 1.5 mg/ml collagenase type D (Sigma-Aldrich) for 20 min in 37° C. shaking incubator. Single cell suspensions were plated at various dilutions in media supplemented with 10% FCS and selection drug. 4T1 is resistant to 6-thioguanine ([…]) and B16-CCR7 is resistant to G418 (0.7 mg/ml). Individual colonies representing micrometastases were counted after 5-10 days.
1×10^5 4T1 tumor cells were injected s.c. to the Balb/c mice, and the mice received 15 Gy of radiation on each days 12, 13, and 14.

## COc1cccc2c1C(=O)c1c(O)c3c(c(O)c1C2=O)C[C@@](O)(C(=O)CO)C[C@@H]3O[C@H]1C[C@H](N)[C@H](O)[C@H](C)O1 [DOXORUBICIN]
TUBO cells
  tumor burden: reduces tumor burden

## CN(C)/N=N/c1[nH]cnc1C(N)=O [dacarbazine]
[1]
  proliferation of cytotoxic lymphocytes (CTL): did not elicit proliferation of cytotoxic lymphocytes (CTL)

## CC(=O)O[C@H]1C(=O)[C@@]2(C)[C@H]([C@H](OC(=O)c3ccccc3)[C@]3(O)C[C@H](OC(=O)[C@H](O)[C@@H](NC(=O)c4ccccc4)c4ccccc4)C(C)=C1C3(C)C)[C@]1(OC(C)=O)CO[C@@H]1C[C@@H]2O [paclitaxel]
4T1 tumor cells [2]
  tumor regression: significantly hindered melanoma tumor regression and promoted tumor outgrowth
4T1 tumor cells [3]; chemotherapy (paclitaxel) alone, compared to the control mice
  degree of metastases in the lungs: little effect on the degree of metastases in the lungs
4T1 tumor cells [3]; paclitaxel 20 mg/kg i.p. on days 7 and 14 after radiation therapy (15 Gy x3), versus radiation therapy alone
  increase in tumor colonies in the lungs: 100 fold
